Source: patent US9062043B2, “Fused tricyclic compounds as serine-threonine protein kinase and PARP modulators” (SENHWA BIOSCIENCES, INC., priority 2006, dated 2015)

Key:
[1] = Body weight of tumor-bearing xenograft animals; format: in vivo; conditions: BC-PC3 xenograft mice, IV and IP dosing
protein kinases [2] = molecular target: protein kinases (Homo sapiens, UniProt O14965); assay: Kinase inhibition, percentage of activity at 0.5 μM, standardized radiometric kinase assays; format: biochemical; conditions: Aurora-A(h);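 note: each kinase tested separately, with activity read as 33P-labelled substrate protein captured on filters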
protein kinases [3] = molecular target: protein kinases (Homo sapiens, UniProt O15111); assay: as above; format: biochemical; conditions: IKKα(h)
protein kinases [4] = molecular target: protein kinases (Homo sapiens, UniProt O15530); assay: as above; format: biochemical; conditions: PDK1(h)
protein kinases [5] = molecular target: protein kinases (Homo sapiens, UniProt O43318); assay: as above; format: biochemical; conditions: TAK1(h)
protein kinases [6] = molecular target: protein kinases (Homo sapiens, UniProt P04049); assay: as above; format: biochemical; conditions: c-RAF(h)
protein kinases [7] = molecular target: protein kinases (Homo sapiens, UniProt P06241); assay: as above; format: biochemical; conditions: Fyn(h)
Sequence of protein kinases (Homo sapiens, UniProt P06241) (P06241 2-537 limits assumed): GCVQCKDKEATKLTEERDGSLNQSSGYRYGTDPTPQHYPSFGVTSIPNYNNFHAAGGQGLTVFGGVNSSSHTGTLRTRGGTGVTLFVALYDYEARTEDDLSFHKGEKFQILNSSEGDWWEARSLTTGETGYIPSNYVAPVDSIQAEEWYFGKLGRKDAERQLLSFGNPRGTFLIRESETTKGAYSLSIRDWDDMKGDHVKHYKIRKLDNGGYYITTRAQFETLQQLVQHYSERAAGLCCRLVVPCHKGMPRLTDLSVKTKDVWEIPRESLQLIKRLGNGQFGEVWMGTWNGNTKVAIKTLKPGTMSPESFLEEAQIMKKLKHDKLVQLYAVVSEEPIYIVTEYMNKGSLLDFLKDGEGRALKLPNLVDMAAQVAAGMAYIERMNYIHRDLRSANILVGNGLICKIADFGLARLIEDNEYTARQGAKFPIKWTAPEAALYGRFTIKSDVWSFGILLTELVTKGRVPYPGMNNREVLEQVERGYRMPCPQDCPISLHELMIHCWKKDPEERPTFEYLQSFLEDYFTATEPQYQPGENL

protein kinases [8] = molecular target: protein kinases (Homo sapiens, UniProt P07332); assay: as above; format: biochemical; conditions: Fes(h)
protein kinases [9] = molecular target: protein kinases (Homo sapiens, UniProt P10721, V560G); assay: as above; format: biochemical; conditions: cKit(V560G)(h)
protein kinases [10] = molecular target: protein kinases (Homo sapiens, UniProt P11362); assay: as above; format: biochemical; conditions: FGFR1(h)
Sequence of protein kinases (Homo sapiens, UniProt P11362) (P11362 22-822 limits assumed): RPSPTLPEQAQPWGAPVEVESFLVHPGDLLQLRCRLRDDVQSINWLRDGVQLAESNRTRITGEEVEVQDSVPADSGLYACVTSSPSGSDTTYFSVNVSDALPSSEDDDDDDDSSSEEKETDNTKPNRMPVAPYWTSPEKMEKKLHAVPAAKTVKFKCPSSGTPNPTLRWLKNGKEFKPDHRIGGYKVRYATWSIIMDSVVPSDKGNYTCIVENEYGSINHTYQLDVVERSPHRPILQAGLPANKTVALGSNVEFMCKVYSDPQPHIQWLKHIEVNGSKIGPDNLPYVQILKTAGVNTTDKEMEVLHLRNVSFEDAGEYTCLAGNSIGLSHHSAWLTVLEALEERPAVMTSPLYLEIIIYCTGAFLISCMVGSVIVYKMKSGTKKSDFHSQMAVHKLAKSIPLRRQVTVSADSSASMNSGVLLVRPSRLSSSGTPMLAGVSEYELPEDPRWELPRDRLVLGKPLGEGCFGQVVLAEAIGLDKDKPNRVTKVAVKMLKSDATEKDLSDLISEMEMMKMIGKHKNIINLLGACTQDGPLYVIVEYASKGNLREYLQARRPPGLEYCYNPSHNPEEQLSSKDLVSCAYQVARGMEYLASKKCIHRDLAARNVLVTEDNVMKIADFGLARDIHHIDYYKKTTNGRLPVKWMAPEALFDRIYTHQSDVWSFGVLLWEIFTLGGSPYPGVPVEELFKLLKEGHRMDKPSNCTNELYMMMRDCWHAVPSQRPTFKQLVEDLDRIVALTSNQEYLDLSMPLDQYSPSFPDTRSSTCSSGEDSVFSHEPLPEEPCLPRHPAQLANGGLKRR

protein kinases [11] = molecular target: protein kinases (Homo sapiens, UniProt P23443); assay: as above; format: biochemical; conditions: p70S6K(h)
protein kinases [12] = molecular target: protein kinases (Homo sapiens, UniProt P35916); assay: as above; format: biochemical; conditions: Flt4(h)
Sequence of protein kinases (Homo sapiens, UniProt P35916) (P35916 25-1363 limits assumed): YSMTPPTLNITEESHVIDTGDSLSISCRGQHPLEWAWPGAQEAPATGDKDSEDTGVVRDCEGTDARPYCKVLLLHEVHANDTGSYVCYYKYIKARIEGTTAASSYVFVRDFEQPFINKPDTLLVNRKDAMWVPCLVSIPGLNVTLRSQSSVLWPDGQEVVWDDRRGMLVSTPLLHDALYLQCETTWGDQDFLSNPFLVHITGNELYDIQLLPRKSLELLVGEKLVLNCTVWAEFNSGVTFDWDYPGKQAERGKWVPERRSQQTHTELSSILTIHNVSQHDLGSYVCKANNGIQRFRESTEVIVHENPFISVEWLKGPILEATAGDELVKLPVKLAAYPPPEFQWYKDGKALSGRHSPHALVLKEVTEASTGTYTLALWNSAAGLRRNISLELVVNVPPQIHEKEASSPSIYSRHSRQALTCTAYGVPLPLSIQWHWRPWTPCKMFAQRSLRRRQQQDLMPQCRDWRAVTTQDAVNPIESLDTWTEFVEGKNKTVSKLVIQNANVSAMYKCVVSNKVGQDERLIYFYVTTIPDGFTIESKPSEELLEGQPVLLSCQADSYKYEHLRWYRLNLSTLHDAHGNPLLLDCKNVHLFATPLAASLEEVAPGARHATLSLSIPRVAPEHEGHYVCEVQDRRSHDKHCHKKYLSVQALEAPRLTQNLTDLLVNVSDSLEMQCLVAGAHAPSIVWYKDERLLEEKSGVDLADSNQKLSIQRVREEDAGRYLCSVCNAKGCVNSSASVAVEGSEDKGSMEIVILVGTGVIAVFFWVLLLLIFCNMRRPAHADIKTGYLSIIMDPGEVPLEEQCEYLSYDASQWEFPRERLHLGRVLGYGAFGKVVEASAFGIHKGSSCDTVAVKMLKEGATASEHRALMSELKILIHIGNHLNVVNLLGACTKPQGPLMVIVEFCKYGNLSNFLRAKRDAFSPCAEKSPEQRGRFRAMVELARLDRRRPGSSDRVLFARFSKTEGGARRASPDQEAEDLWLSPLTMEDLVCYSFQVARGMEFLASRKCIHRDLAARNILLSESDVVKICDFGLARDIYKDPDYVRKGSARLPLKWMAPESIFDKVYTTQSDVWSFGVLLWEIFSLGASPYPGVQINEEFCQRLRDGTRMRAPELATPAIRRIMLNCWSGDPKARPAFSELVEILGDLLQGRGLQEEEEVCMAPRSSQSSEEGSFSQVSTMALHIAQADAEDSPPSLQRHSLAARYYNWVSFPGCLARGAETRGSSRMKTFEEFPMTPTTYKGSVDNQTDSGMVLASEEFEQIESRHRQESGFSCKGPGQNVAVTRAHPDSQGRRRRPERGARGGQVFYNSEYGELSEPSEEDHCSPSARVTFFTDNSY

protein kinases [13] = molecular target: protein kinases (Homo sapiens, UniProt P36888, D835Y); assay: as above; format: biochemical; conditions: Flt3(D835Y)(h)
protein kinases [14] = molecular target: protein kinases (Homo sapiens, UniProt P43403); assay: as above; format: biochemical; conditions: ZAP-70(h)
protein kinases [15] = molecular target: protein kinases (Homo sapiens, UniProt P51955); assay: as above; format: biochemical; conditions: NEK2(h)
protein kinases [16] = molecular target: protein kinases (Homo sapiens, UniProt P54760); assay: as above; format: biochemical; conditions: EphB4(h)
protein kinases [17] = molecular target: protein kinases (Homo sapiens, UniProt P80192); assay: as above; format: biochemical; conditions: MLK1(h)
protein kinases [18] = molecular target: protein kinases (Homo sapiens, UniProt Q04912); assay: as above; format: biochemical; conditions: Ron(h)
protein kinases [19] = molecular target: protein kinases (Homo sapiens, UniProt Q06418); assay: as above; format: biochemical; conditions: Rse(h)
Sequence of protein kinases (Homo sapiens, UniProt Q06418) (Q06418 41-890 limits assumed): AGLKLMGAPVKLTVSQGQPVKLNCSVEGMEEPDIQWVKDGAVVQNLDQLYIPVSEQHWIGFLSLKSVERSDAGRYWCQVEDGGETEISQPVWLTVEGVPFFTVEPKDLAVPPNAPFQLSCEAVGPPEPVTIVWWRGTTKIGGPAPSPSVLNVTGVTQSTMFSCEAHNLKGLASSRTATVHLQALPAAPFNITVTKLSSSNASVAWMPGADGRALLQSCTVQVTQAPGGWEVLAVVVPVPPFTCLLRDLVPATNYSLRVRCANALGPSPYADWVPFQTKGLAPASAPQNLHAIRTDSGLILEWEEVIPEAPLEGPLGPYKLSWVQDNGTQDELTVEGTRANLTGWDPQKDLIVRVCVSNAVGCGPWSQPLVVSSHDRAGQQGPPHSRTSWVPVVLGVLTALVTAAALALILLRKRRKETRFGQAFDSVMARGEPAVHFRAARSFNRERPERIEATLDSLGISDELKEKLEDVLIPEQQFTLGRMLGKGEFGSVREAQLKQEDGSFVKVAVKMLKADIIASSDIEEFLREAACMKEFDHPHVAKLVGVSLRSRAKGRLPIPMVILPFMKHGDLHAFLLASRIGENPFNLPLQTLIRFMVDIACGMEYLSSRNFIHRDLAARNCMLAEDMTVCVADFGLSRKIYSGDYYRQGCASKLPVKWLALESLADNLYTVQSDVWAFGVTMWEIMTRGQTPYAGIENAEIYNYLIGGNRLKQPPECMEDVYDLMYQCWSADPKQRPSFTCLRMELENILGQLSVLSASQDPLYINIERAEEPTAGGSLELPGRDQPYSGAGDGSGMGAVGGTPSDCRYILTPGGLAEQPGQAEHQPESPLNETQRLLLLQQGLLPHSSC

protein kinases [20] = molecular target: protein kinases (Homo sapiens, UniProt Q12866); assay: as above; format: biochemical; conditions: Mer(h)
protein kinases [21] = molecular target: protein kinases (Homo sapiens, UniProt Q13882); assay: as above; format: biochemical; conditions: BRK(h)
protein kinases [22] = molecular target: protein kinases (Homo sapiens, UniProt Q15303); assay: as above; format: biochemical; conditions: ErbB4(h)
Sequence of protein kinases (Homo sapiens, UniProt Q15303) (Q15303 26-1308 limits assumed): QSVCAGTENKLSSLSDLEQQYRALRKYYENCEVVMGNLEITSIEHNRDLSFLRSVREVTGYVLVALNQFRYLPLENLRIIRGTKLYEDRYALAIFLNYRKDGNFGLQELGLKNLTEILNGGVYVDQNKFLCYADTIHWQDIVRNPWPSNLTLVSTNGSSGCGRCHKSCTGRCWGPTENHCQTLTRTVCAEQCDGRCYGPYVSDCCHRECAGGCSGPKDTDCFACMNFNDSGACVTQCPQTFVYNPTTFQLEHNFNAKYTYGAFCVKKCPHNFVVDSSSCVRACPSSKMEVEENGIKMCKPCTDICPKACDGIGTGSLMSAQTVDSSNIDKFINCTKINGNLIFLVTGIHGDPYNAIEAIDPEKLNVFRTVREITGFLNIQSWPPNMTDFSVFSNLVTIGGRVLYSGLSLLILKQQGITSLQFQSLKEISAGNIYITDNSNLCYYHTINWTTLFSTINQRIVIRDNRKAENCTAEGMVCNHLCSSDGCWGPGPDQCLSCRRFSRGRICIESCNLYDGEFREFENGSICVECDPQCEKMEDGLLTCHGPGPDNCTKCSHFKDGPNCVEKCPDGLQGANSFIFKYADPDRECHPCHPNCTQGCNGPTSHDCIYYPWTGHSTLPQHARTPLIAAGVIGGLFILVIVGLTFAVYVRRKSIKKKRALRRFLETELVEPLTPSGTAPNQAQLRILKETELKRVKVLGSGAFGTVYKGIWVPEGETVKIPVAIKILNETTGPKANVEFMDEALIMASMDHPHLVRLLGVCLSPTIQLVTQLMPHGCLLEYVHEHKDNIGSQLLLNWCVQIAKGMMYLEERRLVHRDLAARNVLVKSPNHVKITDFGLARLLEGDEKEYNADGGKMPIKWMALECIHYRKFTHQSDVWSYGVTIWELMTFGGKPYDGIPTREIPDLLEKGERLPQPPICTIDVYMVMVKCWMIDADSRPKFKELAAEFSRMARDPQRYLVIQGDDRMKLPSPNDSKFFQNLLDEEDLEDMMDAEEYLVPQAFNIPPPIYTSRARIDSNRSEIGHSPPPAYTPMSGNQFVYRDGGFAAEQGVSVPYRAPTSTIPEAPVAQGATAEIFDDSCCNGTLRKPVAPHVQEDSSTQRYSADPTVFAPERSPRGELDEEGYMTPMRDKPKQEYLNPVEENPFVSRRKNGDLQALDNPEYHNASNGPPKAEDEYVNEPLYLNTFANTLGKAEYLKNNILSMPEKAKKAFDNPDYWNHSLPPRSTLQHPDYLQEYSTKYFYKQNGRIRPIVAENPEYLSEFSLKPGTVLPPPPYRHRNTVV

protein kinases [23] = molecular target: protein kinases (Homo sapiens, UniProt Q8IW41); assay: as above; format: biochemical; conditions: PRAK(h)
protein kinases [24] = molecular target: protein kinases (Homo sapiens, UniProt Q92630); assay: as above; format: biochemical; conditions: DYRK2(h)
protein kinases [25] = molecular target: protein kinases (Homo sapiens, UniProt Q9H422); assay: as above; format: biochemical; conditions: HIPK3(h)
protein kinases [26] = molecular target: protein kinases (Homo sapiens, UniProt Q9H4B4); assay: as above; format: biochemical; conditions: Plk3(h)
protein kinases [27] = molecular target: protein kinases (Homo sapiens, UniProt Q9UEE5); assay: as above; format: biochemical; conditions: DRAK1(h)

In the case of `C#Cc1cccc(Nc2nc3cc(C(=O)O)ccc3c3cncnc23)c1` [compound A2], the “Body weight (FIG. 4B)” value [1] is reported as “not significantly altering body weight”, the activity at 0.5 µM (protein kinases [2]) is reported as 94% and the activity at 0.5 µM (protein kinases [3]) is reported as 101%. For the same molecule, the activity at 0.5 µM (protein kinases [4]) was 110%, the activity at 0.5 µM (protein kinases [5]) was 101% and the activity at 0.5 µM (protein kinases [6]) was 69%. The activity at 0.5 µM (protein kinases [7]) was 114%, the activity at 0.5 µM (protein kinases [8]) was 139% and the activity at 0.5 µM (protein kinases [9]) was 111%. The activity at 0.5 µM (protein kinases [10]) was 103%, the activity at 0.5 µM (protein kinases [11]) was 80% and the activity at 0.5 µM (protein kinases [12]) was -1%. It also gave an activity at 0.5 µM (protein kinases [13]) of 17%, an activity at 0.5 µM (protein kinases [14]) of 118% and an activity at 0.5 µM (protein kinases [15]) of 77%. For the same molecule, the activity at 0.5 µM (protein kinases [16]) was 144%, the activity at 0.5 µM (protein kinases [17]) was 80% and the activity at 0.5 µM (protein kinases [18]) was 106%. For the same molecule, the activity at 0.5 µM (protein kinases [19]) was 109%, the activity at 0.5 µM (protein kinases [20]) was 46% and the activity at 0.5 µM (protein kinases [21]) was 110%. It also gave an activity at 0.5 µM (protein kinases [22]) of 126%, an activity at 0.5 µM (protein kinases [23]) of 93% and an activity at 0.5 µM (protein kinases [24]) of 50%. The activity at 0.5 µM (protein kinases [25]) was 10%, the activity at 0.5 µM (protein kinases [26]) was 106% and the activity at 0.5 µM (protein kinases [27]) was 62%.
